The values below come from article PMC7947880 (Molecular Biology and Evolution, 2020).

Each structure is given as a SMILES string. Read-outs that look alike come from different tables or passages of the source.

As usually defined, the Kd is a measure of binding affinity in units of concentration. Low readings indicate a tighter complex, high ones a looser complex.

The target of experiment [1] is T1, CYP51fx (sterol 14α-demethylase) (Methylococcus capsulatus, UniProt Q603T8).
T1 sequence (Q603T8 1-551): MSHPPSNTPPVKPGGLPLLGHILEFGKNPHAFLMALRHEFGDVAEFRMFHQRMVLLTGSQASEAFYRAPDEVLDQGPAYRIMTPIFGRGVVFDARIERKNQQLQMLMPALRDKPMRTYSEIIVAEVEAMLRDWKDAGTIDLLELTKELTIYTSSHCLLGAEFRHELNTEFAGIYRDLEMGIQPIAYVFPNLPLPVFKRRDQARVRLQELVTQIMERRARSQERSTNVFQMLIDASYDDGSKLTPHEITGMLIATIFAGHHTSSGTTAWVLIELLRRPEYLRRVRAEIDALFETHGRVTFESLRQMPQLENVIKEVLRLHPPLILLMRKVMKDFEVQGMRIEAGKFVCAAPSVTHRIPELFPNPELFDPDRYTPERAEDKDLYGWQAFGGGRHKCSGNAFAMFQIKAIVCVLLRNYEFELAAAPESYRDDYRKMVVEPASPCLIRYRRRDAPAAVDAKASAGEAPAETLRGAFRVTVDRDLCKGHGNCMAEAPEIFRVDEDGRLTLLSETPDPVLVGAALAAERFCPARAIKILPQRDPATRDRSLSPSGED
The experiment is described as follows: UV-visible spectral titration. The class given is binding.

Experiment [2] has as its target T1, CYP51fx (sterol 14α-demethylase). The experiment is described as follows: UV-visible spectral titration. The class given is binding. This is another data set of the same source.
The target is the same in experiment [3]. The class given is biochemical.
Experiment [4] has the same target. The experiment can be described thus: UV-visible spectral titration. The experiment is classed as binding. The source holds these as a separate data set.

Consider `CC(C)=CCC[C@@H](C)[C@H]1CC[C@@]2(C)[C@@H]3CC[C@H]4C(C)(C)[C@@H](O)CC[C@@]45C[C@@]35CC[C@]12C` [cycloartenol], for which, in experiment [1], the affinity, expressed as Kd, was 460 nM. Compound `CC(C)=CCC[C@@H](C)[C@H]1CC[C@@]2(C)[C@@H]3CC=C4[C@@H](CC[C@H](O)C4(C)C)[C@]3(C)CC[C@]12C` [cucurbitadienol] yielded a dissociation constant Kd in experiment [2] of 670 nM. On to `C=C(CC[C@@H](C)[C@H]1CC[C@@]2(C)C3=C(CC[C@]12C)[C@@]1(C)CC[C@H](O)[C@@H](C)[C@@H]1CC3)C(C)C` [obtusifoliol], for which, in experiment [3], the “reconstituted 14α-demethylase turnover of radiolabeled sterol with E. coli flavo” value came out at 1.2 min⁻¹.

Regarding `CC(C)=CCC[C@@H](C)[C@H]1CC[C@@]2(C)[C@@H]3CC[C@H]4C(C)(C)[C@@H](O)CC[C@]4(C)C3=CC[C@]12C` [parkeol], in experiment [1], the Kd is 260 nM. In the case of `C=C(CC[C@@H](C)[C@H]1CC[C@@]2(C)C3=C(CC[C@]12C)[C@@]1(C)CC[C@H](O)C(C)(C)[C@@H]1CC3)C(C)C` [eburicol], the Kd in experiment [4] was 48 ± 4 nM. For the compound `CC(C)=CCC[C@@H](C)[C@H]1CC[C@@]2(C)C3=C(CC[C@]12C)[C@@]1(C)CC[C@H](O)C(C)(C)[C@@H]1CC3` [lanosterol], in experiment [4], the affinity, expressed as Kd, was 94 ± 11 nM.
